Laboratory results from PubChem BioAssay AID248 (DTP/NCI, 2004).
“And” between values parts separate entries of the source, which are not always exact repeats. Identical values can stand only once. Inconclusive results and toxic doses are left out.

System: L1210 leukemia ip in BDF1 mice, survival T/C
Assay: NCI In Vivo Anticancer Drug Screen. Data for tumor model L1210 Leukemia (intraperitoneal) in B6D2F1 (BDF1) mice
Settings: endpoint: mean survival time, higher = longer survival
Method in brief: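 Read-out is survival time, reported as the treated-group measurement over the vehicle-control measurement.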

[1] = dose: 100.0 mg/kg/injection, schedule: Q04DX003 (ip), vehicle: saline with Tween-80
[2] = dose: 200.0 mg/kg/injection, schedule: Q04DX003 (ip), vehicle: saline with Tween-80
[3] = dose: 400.0 mg/kg/injection, schedule: Q04DX003 (ip), vehicle: saline with Tween-80
[4] = dose: 100.0 mg/kg/injection, schedule: Q01DX001 (ip), vehicle: carboxymethylcellulose (CMC)
[5] = dose: 200.0 mg/kg/injection, schedule: Q01DX001 (ip), vehicle: carboxymethylcellulose (CMC)
[6] = dose: 400.0 mg/kg/injection, schedule: Q01DX001 (ip), vehicle: carboxymethylcellulose (CMC)
[7] = dose: 100.0 mg/kg/injection, schedule: Q01DX009 (ip), vehicle: saline
[8] = dose: 100.0 mg/kg/injection, schedule: Q04DX003 (ip), vehicle: saline
[9] = dose: 200.0 mg/kg/injection, schedule: Q01DX009 (ip), vehicle: saline
[10] = dose: 200.0 mg/kg/injection, schedule: Q04DX003 (ip), vehicle: saline
[11] = dose: 400.0 mg/kg/injection, schedule: Q01DX009 (ip), vehicle: saline
[12] = dose: 400.0 mg/kg/injection, schedule: Q04DX003 (ip), vehicle: saline
[13] = dose: 100.0 mg/kg/injection, schedule: Q04DX003 (ip), vehicle: Klucel (hydroxypropylcellulose) (HPC)
[14] = dose: 200.0 mg/kg/injection, schedule: Q04DX003 (ip), vehicle: Klucel (hydroxypropylcellulose) (HPC)
[15] = dose: 400.0 mg/kg/injection, schedule: Q04DX003 (ip), vehicle: Klucel (hydroxypropylcellulose) (HPC)
[16] = dose: 100.0 mg/kg/injection, schedule: Q01DX001 (ip), vehicle: saline
[17] = dose: 200.0 mg/kg/injection, schedule: Q01DX001 (ip), vehicle: saline
[18] = dose: 400.0 mg/kg/injection, schedule: Q01DX001 (ip), vehicle: saline
[19] = dose: 100.0 mg/kg/injection, schedule: Q01DX009 (ip), vehicle: Klucel (hydroxypropylcellulose) (HPC)
[20] = dose: 200.0 mg/kg/injection, schedule: Q01DX009 (ip), vehicle: Klucel (hydroxypropylcellulose) (HPC)
[21] = dose: 400.0 mg/kg/injection, schedule: Q01DX009 (ip), vehicle: Klucel (hydroxypropylcellulose) (HPC)

CC1=NCC(C)(C)O1 was tested, and the T/C [1] was 98 % of control, the T/C [2] was 95 % of control and the T/C [3] was 98 % of control.

In the case of COc1ccc([N+](=O)[O-])cc1NC(C)=O, the T/C [4] is reported as 99 % of control, the T/C [5] is reported as 99 % of control and the T/C [6] is reported as 99 % of control.

CCCCc1c(F)cccc1C(=O)O was tested, and the T/C (dose: 12.5 mg/kg/injection, schedule: Q04DX003 (ip), vehicle: saline) was 101 % of control, the T/C (dose: 25.0 mg/kg/injection, schedule: Q04DX003 (ip), vehicle: saline) was 108 % of control and the T/C (dose: 50.0 mg/kg/injection, schedule: Q04DX003 (ip), vehicle: saline) was 87 % of control.

In the case of COc1ccc(C(=O)CCN2CCC(O)(c3ccccc3)CC2)cc1, the T/C (dose: 12.5 mg/kg/injection, schedule: Q04DX003 (ip), vehicle: saline with Tween-80) is reported as 100 % of control, the T/C (dose: 25.0 mg/kg/injection, schedule: Q04DX003 (ip), vehicle: saline with Tween-80) is reported as 92 % of control and the T/C (dose: 50.0 mg/kg/injection, schedule: Q04DX003 (ip), vehicle: saline with Tween-80) is reported as 96 % of control.

With CN(Cc1cnc2nc(N)nc(N)c2n1)c1ccc(C(=O)NC(CCC(=O)O)C(=O)O)c2ccccc12 (configuration not stated) the T/C (dose: 2.0 mg/kg/injection, schedule: Q01DX009 (ip), vehicle: saline) was 159 % of control, the T/C (dose: 2.0 mg/kg/injection, schedule: Q04DX003 (ip), vehicle: saline) was 120 % of control and the T/C (dose: 4.0 mg/kg/injection, schedule: Q01DX009 (ip), vehicle: saline) was 152 % of control and 172 % of control. For the same compound, the T/C (dose: 4.0 mg/kg/injection, schedule: Q04DX003 (ip), vehicle: saline) was 122 % of control, the T/C (dose: 8.0 mg/kg/injection, schedule: Q01DX009 (ip), vehicle: saline) was 156 % of control and 160 % of control and the T/C (dose: 8.0 mg/kg/injection, schedule: Q04DX003 (ip), vehicle: saline) was 106 % of control. For the same compound, the T/C (dose: 13.0 mg/kg/injection, schedule: Q01DX009 (ip), vehicle: saline) was 123 % of control, the T/C (dose: 64.0 mg/kg/injection, schedule: Q04DX003 (ip), vehicle: saline) was 115 % of control and the T/C (dose: 128.0 mg/kg/injection, schedule: Q04DX003 (ip), vehicle: saline) was 101 % of control.

In the case of Cc1cc([N+](=O)[O-])c(C)c([N+](=O)[O-])c1Cl, the T/C (dose: 100.0 mg/kg/injection, schedule: Q01DX001 (ip), vehicle: acetone) is reported as 101 % of control, the T/C [7] is reported as 90 % of control and the T/C [8] is reported as 95 % of control. The T/C (dose: 200.0 mg/kg/injection, schedule: Q01DX001 (ip), vehicle: acetone) was 97 % of control, the T/C [9] was 95 % of control and the T/C [10] was 103 % of control. For the same compound, the T/C (dose: 400.0 mg/kg/injection, schedule: Q01DX001 (ip), vehicle: acetone) was 95 % of control, the T/C [11] was 88 % of control and the T/C [12] was 98 % of control.

For O=C(CCCCCCCCC(=O)OCc1ccccc1)OCc1ccccc1, the T/C (dose: 100.0 mg/kg/injection, schedule: Q04DX002 (ip), vehicle: saline) was 96 % of control, the T/C (dose: 200.0 mg/kg/injection, schedule: Q04DX002 (ip), vehicle: saline) was 88 % of control and the T/C (dose: 400.0 mg/kg/injection, schedule: Q04DX002 (ip), vehicle: saline) was 100 % of control.

With C=C1C(=O)OC2CCC3OC3CCC12 (configuration not stated) (tested in a mixture with another compound) the T/C [8] was 103 % of control and the T/C [10] was 95 % of control.

With O=S(=O)(Nc1cccc2ccccc12)c1cccc2cccnc12 the T/C [13] was 90 % of control, the T/C [14] was 91 % of control and the T/C [15] was 91 % of control.

For Cc1cc(C)c(CN)cc1C, the T/C (dose: 5.0 mg/kg/injection, schedule: Q04DX003 (ip), vehicle: saline with Tween-80) was 95 % of control, the T/C (dose: 10.0 mg/kg/injection, schedule: Q04DX003 (ip), vehicle: saline with Tween-80) was 95 % of control and the T/C (dose: 20.0 mg/kg/injection, schedule: Q04DX003 (ip), vehicle: saline with Tween-80) was 95 % of control.

For CCN(CC)CCN1C(=O)CN=C(c2ccccn2)c2cc(Cl)ccc21, the T/C (dose: 50.0 mg/kg/injection, schedule: Q01DX009 (ip), vehicle: saline) was 101 % of control, the T/C [7] was 104 % of control and the T/C [1] was 97 % of control. The T/C [9] was 112 % of control and the T/C [2] was 92 % of control.

With CC1CC(=O)Oc2cc(O)c(O)cc21 (configuration not stated) the T/C [16] was 101 % of control, the T/C [17] was 95 % of control and the T/C [18] was 95 % of control.

In the case of O=C(c1cccs1)c1cscc1C(=O)c1cccs1, the T/C (dose: 100.0 mg/kg/injection, schedule: Q01DX001 (ip), vehicle: saline with Tween-80) is reported as 95 % of control, the T/C (dose: 200.0 mg/kg/injection, schedule: Q01DX001 (ip), vehicle: saline with Tween-80) is reported as 95 % of control and the T/C (dose: 400.0 mg/kg/injection, schedule: Q01DX001 (ip), vehicle: saline with Tween-80) is reported as 92 % of control.

O=[N+]([O-])c1ccc2c(c1)/C(=N\O)c1cc(F)ccc1-2 was tested, and the T/C [4] was 103 % of control, the T/C [5] was 105 % of control and the T/C [6] was 98 % of control.

N#CC1(C(O)c2ccccc2)C=Cc2ccccc2N1C(=O)c1ccccc1 (configuration not stated) was tested, and the T/C (dose: 100.0 mg/kg/injection, schedule: Q01DX001 (ip), vehicle: steriod suspending solution) was 98 % of control and the T/C (dose: 400.0 mg/kg/injection, schedule: Q01DX001 (ip), vehicle: steriod suspending solution) was 95 % of control.

In the case of O=[N+]([O-])c1cccc([N+](=O)[O-])c1/C=N/Nc1nnc(N/N=C/c2c([N+](=O)[O-])cccc2[N+](=O)[O-])c2ccccc12, the T/C (dose: 50.0 mg/kg/injection, schedule: Q01DX001 (ip), vehicle: saline) is reported as 100 % of control, the T/C [16] is reported as 103 % of control and the T/C [17] is reported as 100 % of control. For the same compound, the T/C [18] was 100 % of control.

With O=[N+]([O-])c1ccc(S(=O)(=O)C2CCCCC2Cl)cc1 (configuration not stated) the T/C [19] was 88 % of control, the T/C [20] was 91 % of control and the T/C [21] was 90 % of control.

In the case of COc1ccccc1-n1c(O)c(N=Nc2ccc(Br)cc2)c(=O)n(-c2ccc(C)cc2)c1=S, the T/C (dose: 100.0 mg/kg/injection, schedule: Q01DX001 (ip), vehicle: Klucel (hydroxypropylcellulose) (HPC)) is reported as 109 % of control, the T/C (dose: 200.0 mg/kg/injection, schedule: Q01DX001 (ip), vehicle: Klucel (hydroxypropylcellulose) (HPC)) is reported as 102 % of control and the T/C (dose: 400.0 mg/kg/injection, schedule: Q01DX001 (ip), vehicle: Klucel (hydroxypropylcellulose) (HPC)) is reported as 102 % of control.

For O=C1c2ccccc2-c2ccc(-c3ccccc3)c3ccc(CCc4ccccc4)c1c23, the T/C [1] was 100 % of control, the T/C [2] was 89 % of control and the T/C [3] was 89 % of control.

For CN1CCN(C(=S)Nc2ccc([N+](=O)[O-])cc2)CC1, the T/C [19] was 98 % of control, the T/C [20] was 105 % of control and the T/C [21] was 96 % of control.

CC(=O)CO was tested, and the T/C (dose: 50.0 mg/kg/injection, schedule: Q01DX001 (ip), vehicle: carboxymethylcellulose (CMC)) was 98 % of control, the T/C [4] was 101 % of control and the T/C [7] was 90 % of control. The T/C [8] was 93 % of control, the T/C [5] was 101 % of control and the T/C [9] was 97 % of control. The T/C [10] was 96 % of control, the T/C [6] was 98 % of control and the T/C [11] was 100 % of control. The T/C [12] was 101 % of control.

In the case of C=CC[N+](CC=C)(CC=C)C/C=C/C[N+](CC=C)(CC=C)CC=C, the T/C (dose: 6.25 mg/kg/injection, schedule: Q01DX009 (ip), vehicle: water) is reported as 95 % of control, the T/C (dose: 12.5 mg/kg/injection, schedule: Q01DX009 (ip), vehicle: water) is reported as 94 % of control and 91 % of control and the T/C (dose: 25.0 mg/kg/injection, schedule: Q01DX009 (ip), vehicle: water) is reported as 93 % of control and 101 % of control. For the same compound, the T/C (dose: 50.0 mg/kg/injection, schedule: Q01DX009 (ip), vehicle: water) was 104 % of control.

CCc1cc(CC)c(CC)c(CC)c1 was tested, and the T/C [7] was 100 % of control, the T/C [8] was 107 % of control and the T/C [9] was 87 % of control. The T/C [10] was 105 % of control, the T/C [11] was 108 % of control and the T/C [12] was 91 % of control.

OCC1OC(n2cncn2)C(O)C1O (configuration not stated) was tested, and the T/C (dose: 100.0 mg/kg/injection, schedule: Q01DX005 (ip), vehicle: saline) was 102 % of control and 111 % of control.

O=S(=O)(/N=C(Cl)/C(Cl)=N/S(=O)(=O)c1ccccc1)c1ccccc1 was tested, and the T/C [13] was 95 % of control, the T/C [14] was 100 % of control and the T/C [15] was 95 % of control.
